The supplement of paper PMC11451515

Tested on: P12-Ichikawa
Experiment: cell viability relative to DMSO control; higher = less cytotoxic
Conditions: 48 h
Summary of the method: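 In 1536-well plates, 5 μl of leukemia cells were seeded per well: 500 cells/well for NOMO1 or SEM and 1000 cells/well for P12-Ichikawa. Each line had first been adapted for at least four passages in each medium. Library compounds in DMSO were pin-dosed at 11 threefold concentrations between 47 μM and 0.79 nM, and CellTiter-Glo One luminescence was read after 48 h at 37°C. Viability is a per-plate percentage relative to DMSO wells, with cell-free wells as background.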

[1] = HPLM + 10% dialyzed FBS, 0.000781 µM
[2] = HPLM + 10% dialyzed FBS, 0.00234 µM
[3] = HPLM + 10% dialyzed FBS, 0.00702 µM
[4] = HPLM + 10% dialyzed FBS, 0.0211 µM
[5] = HPLM + 10% dialyzed FBS, 0.0632 µM
[6] = HPLM + 10% dialyzed FBS, 0.19 µM
[7] = HPLM + 10% dialyzed FBS, 0.569 µM
[8] = HPLM + 10% dialyzed FBS, 1.71 µM
[9] = HPLM + 10% dialyzed FBS, 5.12 µM
[10] = HPLM + 10% dialyzed FBS, 15.4 µM
[11] = HPLM + 10% dialyzed FBS, 46.1 µM
[12] = RPMI 5 mM glucose + 10% FBS, 0.000781 µM
[13] = RPMI 5 mM glucose + 10% FBS, 0.00234 µM
[14] = RPMI 5 mM glucose + 10% FBS, 0.00702 µM
[15] = RPMI 5 mM glucose + 10% FBS, 0.0211 µM
[16] = RPMI 5 mM glucose + 10% FBS, 0.0632 µM
[17] = RPMI 5 mM glucose + 10% FBS, 0.19 µM
[18] = RPMI 5 mM glucose + 10% FBS, 0.569 µM
[19] = RPMI 5 mM glucose + 10% FBS, 1.71 µM
[20] = RPMI 5 mM glucose + 10% FBS, 5.12 µM
[21] = RPMI 5 mM glucose + 10% FBS, 15.4 µM
[22] = RPMI 5 mM glucose + 10% FBS, 46.1 µM
[23] = RPMI 5 mM glucose + 10% dialyzed FBS, 0.000781 µM
[24] = RPMI 5 mM glucose + 10% dialyzed FBS, 0.00234 µM
[25] = RPMI 5 mM glucose + 10% dialyzed FBS, 0.00702 µM
[26] = RPMI 5 mM glucose + 10% dialyzed FBS, 0.0211 µM
[27] = RPMI 5 mM glucose + 10% dialyzed FBS, 0.0632 µM
[28] = RPMI 5 mM glucose + 10% dialyzed FBS, 0.19 µM
[29] = RPMI 5 mM glucose + 10% dialyzed FBS, 0.569 µM
[30] = RPMI 5 mM glucose + 10% dialyzed FBS, 1.71 µM
[31] = RPMI 5 mM glucose + 10% dialyzed FBS, 5.12 µM
[32] = RPMI 5 mM glucose + 10% dialyzed FBS, 15.4 µM
[33] = RPMI 5 mM glucose + 10% dialyzed FBS, 46.1 µM

SMILES	cell viability [1]	cell viability [2]	cell viability [3]	cell viability [4]	cell viability [5]	cell viability [6]	cell viability [7]	cell viability [8]	cell viability [9]	cell viability [10]	cell viability [11]	cell viability [12]	cell viability [13]	cell viability [14]	cell viability [15]	cell viability [16]	cell viability [17]	cell viability [18]	cell viability [19]	cell viability [20]	cell viability [21]	cell viability [22]	cell viability [23]	cell viability [24]	cell viability [25]	cell viability [26]	cell viability [27]	cell viability [28]	cell viability [29]	cell viability [30]	cell viability [31]	cell viability [32]	cell viability [33]
CCN1C[C@]2(OC(=O)c3ccccc3NC(C)=O)CC[C@H](OC)[C@@]34[C@@H]2C[C@@H]([C@@H]13)[C@@]1(O)C[C@H](OC)[C@H]2C[C@@H]4[C@]1(O)[C@H]2OC	91.8%	109%	110%	113%	114%	109%	106%	111%	103%	106%	108%	105%	109%	116%	104%	113%	111%	119%	108%	99.1%	105%	114%	103%	111%	115%	110%	117%	106%	115%	110%	104%	107%	102%
O=C1NC(O)CCN1[C@@H]1O[C@H](CO)[C@@H](O)[C@H]1O (stereo partly drawn)	118%	127%	120%	116%	128%	129%	122%	106%	102%	110%	112%												118%	119%	131%	124%	116%	120%	120%	121%	110%	115%	107%
CC(C)NCC(O)c1ccc(NS(C)(=O)=O)cc1 (stereo not drawn)	104%	113%	96.3%	105%	117%	111%	104%	108%	98%	102%	100%	109%	102%	99.9%	105%	97.9%	110%	106%	112%	101%	98.7%	101%	101%	102%	100%	98.6%	97%	94.3%	99.2%	91%	91%	99.2%	96.6%
CN(C)CCCNC(=O)c1ccc(-c2cc(O)c3ncccc3c2)cc1	102%	102%	106%	107%	106%	111%	93.9%	104%	101%	95.2%	82.6%	95.7%	97.4%	101%	104%	111%	89.6%	93.3%	95.5%	92%	99.8%	63.6%	92.3%	97.9%	96.8%	97.5%	103%	95.1%	98.5%	90.6%	83.4%	100%	71.1%
CC(C)c1ccccc1Cc1cc(C(=O)Nc2ccc([S+](=O)([O-])c3ccccc3C(C)(C)C)cc2)c(O)c(O)c1O	112%	112%	111%	113%	111%	110%	106%	102%	101%	97.2%	91.5%	112%	116%	116%	114%	118%	115%	107%	107%	108%	103%	87.7%	111%	112%	117%	108%	107%	114%	108%	107%	97.1%	93.3%	92.9%
COC[C@H]1OC(=O)C2=COC3=C2[C@@]1(C)\C4=C(\[C@@H]5CC[C@H](O)[C@@]5(C)C[C@H]4OC(C)=O)C3=O	105%	120%	85.6%	117%	120%	123%	127%	123%	121%	109%	68.2%	104%	121%	67.4%	118%	114%	129%	128%	124%	117%	101%	81.6%	100%	115%	84.9%	120%	131%	126%	132%	130%	116%	88.8%	58.9%
O=[N+]([O-])c1cnc(Sc2nnc(O)n2-c2ccc3c(c2)OCCO3)s1	87.4%	86.1%	87.7%	91%	91.8%	93.4%	94.2%	97%	87.8%	45.8%	2.64%	86.5%	84.3%	88%	94.1%	87.6%	92.5%	81.5%	90%	81.6%	3.89%	1.48%	83.6%	78.6%	80.5%	84.1%	87.4%	89.2%	83.6%	79.2%	79.3%	1.24%	0.948%
C[C@@H]1CC[C@@]2(OC1)OC1CC3C4CC=C5CC(O)CCC5(C)C4CCC3(C)C1[C@@H]2C (stereo partly drawn)	101%	105%	97%	104%	107%	106%	112%	106%	110%	25.8%	6.49%	98.9%	99.9%	102%	106%	106%	99.3%	104%	108%	118%	86.8%	36.4%	92%	96.3%	92.3%	99.3%	97%	106%	105%	105%	119%	73.8%	16.8%
